Assay results reported in PMC10856564, “Metabolites from Streptomyces aureus (VTCC43181) and Their Inhibition of Mycobacterium tuberculosis ClpC1 Protein” (Molecules, 2024).
“Also recorded” adds a separate entry of the source.

Experiments:
[1] = tested on: Gr (+) and Gr (-) microbacteria; conditions: in vitro; against Gr (+) and Gr (-) microbacteria; cited from earlier work
Text: Streptomyces aureus is a species of actinomycete belonging to the genus Streptomyces. Its spores are spherical or oval in shape, and the average diameter is about 0.9 μ in width and 1.2 μ in length. […] The morphological characteristics of the S. aureus depend on different nutritional environments. A previous study reported that many active secondary metabolites were produced by this actinomycete strain. Alkaloid azirinomycin and 3-methyl-2H-azirine-2-carboxylic acid isolated fr ...

[2] = tested on: recombinant ClpC1 protein; assay type: biochemical; conditions: compounds at 0.1 µM, 1.0 µM, and 10.0 µM, released phosphate, BIOMOL Green, absorbance at 620 nm; for Affection of ATPase activity of ClpC1: controls ecumicin and rufomycin, values only in Figure 5
[3] = cited from earlier work
Experimental: Compound 1 (7 mg) was afforded after purification using Sephadex and silica gel column chromatography, followed by thin-layer chromatography. This compound was obtained as a colorless powder.

[4] = tested on: HCV NS3 protease; conditions: cited from earlier work
Experimental: (§1) Compound 2 (3 mg) was yielded after column chromatography on normal-phase silica gel and the Sephadex LH20 column. Compound 2 (3 mg) was obtained as a white powder. […] The NMR data of compound 2 indicated a lactone ring structure consisting ...

[5] = tested on: leukocyte; conditions: cited from earlier work
Experimental: as §1

[6] = cited from earlier work; remark: listed apart in the source
Experimental: as §1

[7] = tested on: tuberculosis bacteria; conditions: through targeting the regulatory protein ClpC1; cited from earlier work
[8] = tested on: ClpC1; conditions: cited from earlier work; for ClpC1 inhibition: no reference at the place
[9] = tested on: ClpC1/CplP1/ClpP2; conditions: via change in configuration of ClpC1; cited from earlier work
[10] = tested on: ClpC1; conditions: cited from earlier work
[11] = cited from earlier work; remark: listed apart in the source
Experimental: Compound 3 (12 mg) was obtained as a white solid. This compound was afforded after two reverse-phase column chromatography. […] In the ^1H NMR spectrum, ten signals of protons appeared at δH 3.57–3.54 (2H, m, α-H of Leu^1 & Leu^2), 3.50 (1H, d, J = 3.5, α-H of Ile), 3.43 (3H, d, J = 4.5, α-H of Ala^1, Ala^2, and Ala^3), 1.97–1.95 (1H, m, β-H of Ile), 1.83–1.77 (2H, m, γ-H of Leu^1, and Leu^2), 1.83–1.59 (4H, m, β-H of Leu^1, and Leu^ ...

In the case of CC1=NC1C(=O)O (centres unmarked) [azirinomycin], the antibiotic activity [1] is given as “exhibited broad-spectrum antibiotic activity in vitro”.

For O=C1CCC(=O)N(O)CCCCCNC(=O)CCC(=O)N(O)CCCCCNC(=O)CCC(=O)N(O)CCCCCN1 [compound 1, nocardamin], the “Affection of ATPase activity of ClpC1” value [2] is listed as “did not affect the ATPase activity of ClpC1”, the antimalarial activity [3] is listed as “antimalarial activity” and the siderophore activity [3] is listed as “showed siderophore activity”.

In the case of O=c1ccoc(=O)o1 [compound 2, 4H-1,3-dioxine-2,4-dione], the “Affection of ATPase activity of ClpC1” value [2] is given as “did not affect the ATPase activity of ClpC1”, the IC50 [4] is given as 78.9 µM and the leukocyte inhibitory effects [5] is given as “leukocyte inhibitory effects”. The antioxidant activity [6] was “possesses antioxidant activity”.

For Cyclomarin A, the anti-tuberculosis activity [7] is given as “anti-tuberculosis activity through the mechanism of targeting the regulatory protein ClpC1 of tuberculosis bacteria”.

For cyclomarin, the “effect on ATPase activity of ClpC1” value [8] is listed as “shown to affect the ATPase activity of ClpC1”.

In the case of ecumicin, the “effect on ATPase activity of ClpC1” value [8] is given as “shown to affect the ATPase activity of ClpC1”, the ClpC1 inhibition [8] is given as “inhibited ClpC1” and the effect on proteolysis [9] is given as “affecting proteolysis of ClpC1/CplP1/ClpP2”. For the same compound, the “binding site on ClpC1” value [10] was “binded to the allosteric site of ClpC1, causing a change in configuration”.

For halolitoralin A [compound 3], the “ATP hydrolysis effect of ClpC1 compared with ecumicin” value ([2]; comparison with standard compound ecumicin) is listed as “similarly to ecumicin, but with lower ATP hydrolysis affection; also recorded: affected the ATPase activity of ClpC1 in a similar way to the standard compound ecumicin; also recorded: showed the effect on the ATPase hydrolysis activity of ClpC1, acting similar way to the antibiotic eucumicin”, the “Affection of ATPase activity of ClpC1” value [2] is listed as “effective for the ATPase hydrolysis of the ClpC1 protein” and the anthelmintic activity [11] is listed as “anthelmintic activity”. For the same compound, the antimicrobial activity [11] was “potent antimicrobial activity” and the antitumor activities ([11]; in vitro) was “antitumor activities in vitro”.

In the case of lassomycin, the “effect on ATPase activity of ClpC1” value [8] is listed as “shown to affect the ATPase activity of ClpC1” and the ClpC1 inhibition [8] is listed as “inhibited ClpC1”.

In the case of rufomycin, the “effect on ATPase activity of ClpC1” value [8] is given as “shown to affect the ATPase activity of ClpC1” and the ClpC1 inhibition [8] is given as “inhibited ClpC1”.
